Laboratory results reported in patent US7033999B2, “Nitrosated and nitrosylated heme proteins” (Brigham and Women's Hospital, priority 1991, dated 2006).

Legend:
gel-filtered platelets [1] = experiment: Platelet aggregation (nephelometric aggregometry); assay type: cell-based, human
Method: Venous blood, anticoagulated with 1-mM trisodium citrate, was obtained from volunteers who had not consumed acetylsalicylic acid for at least ten days. Platelet-rich plasma (PRP) was prepared by centrifugation at 150 g for ten minutes at 25° C. Platelet counts were determined with a Coulter counter (model ZM; Coulter Electronics, Hialeah, Fla.).
Platelets were gel-filtered on a 4× 10 cm column of Sepharose 2B in Tyrode's Hepes buffer as described previously (Hawiger et al., Nature 2831:195–198 (1980), herein incorporated by reference). Platelets were typically suspended at a concentration of 1.5×10^8/ml and were used within 30 minutes of preparation. Platelet aggregation was monitored using a standard nephelometric technique (Born, et al., J. Physiol. 168:178–195 (1963), herein incorporated by reference), in which 0.3-ml aliquots of gel-filtered platelets were incubated at 37° C. and stirred at 1000 rpm in a PAP-4 aggregometer (Biodata, Hatboro, Pa.). Gel-filtered platelets were preincubated with t-PA or S—NO-t-PA for up to 45 minutes and aggregations induced with 5 μM ADP or 0.025 U/ml thrombin.
Aggregations were quantified by measuring the maximal rate or extent of light transmittance and expressed as a normalized value relative to control aggregations.
The effect of S-nitroso-BSA on platelet aggregation was studied, using a gel-filtered platelet preparation, as previously described (Hawiger et al., Nature 2831:195 (1980)) and suspended at 150,000 platelets/ul in HEPES buffer, pH 7.35. S—NO-BSA was incubated with platelets for ten minutes at 37° C. in a PAP-4 aggregometer (BioData, Hatboro, Pa.), after which aggregations were induced with 5 μM ADP. Aggregations were quantified by measuring the extent of change of light transmittance and expressed as a normalized value relative to control aggregations.

[2] = test system: endothelium-denuded rabbit aortic strips; experiment: Vessel relaxation bioassay; assay type: cell-based
Method: New Zealand White female rabbits weighing 3–4 kg were anesthetized with 30 mg/kg IV sodium pentobarbital. Descending thoracic aortae were isolated and placed immediately in a cold physiologic salt solution (Kreb's) (mM): NaCl, 118; CKl, 4.7; CaCl2, 2.5; MgSO4, 1.2; KH2PO4, 1.2; NaHCO3, 12.5; and D-glucose, 11.0. The vessels were cleaned of adherent connective tissue, and the endothelium removed by gentle rubbing with a cotton tipped applicator inserted into the lumen, after which the vessel was cut into 5 mm rings. The rings were mounted on stirrups and connected to transducers (model FT03C Grass Instruments, Quincy, Mass.) by which changes in isometric tension were recorded.
Samples were added to a standard bioassay in which vessel rings were suspended in glass chambers containing seven mil of oxygenated Kreb's buffer, in a standard bioassay (Cook et al., Am. J. Physiol. 28:H804 (1989), herein incorporated by reference). Sustained contractions, to 2 gm tension, were induced with 1 μM epinephrine, after which the effects of t-PA and S—NO-t-PA were tested. In certain experiments the guanylate cyclase inhibitor, methylene blue, was preincubated with vessel rings for 15 minutes prior to initiation of contractions.
The vasodilatory actions of S-nitroso-BSA were examined in a standard bioassay containing endothelium-denuded rabbit aortic strips in Kreb's buffer, pH 7.5, at 37°, as described in Example 6.
In vessel experiments, relaxations to S—NO-BSA are expressed as-percent of tone induced by 1.0 μM norepinephrine.

hemoglobin = hemoglobin (Bos taurus, UniProt P01966+P02070); settings: for reaction at the redox metal (iron-binding site) of hemoglobin: UV spectrum, SNOAC over 15 minutes
gel-filtered platelets [3] = experiment: Platelet aggregation (nephelometric aggregometry); assay type: cell-based, human; remark: listed apart in the source
[4] = test system: RFL-6 lung fibroblasts containing a soluble guanylate cyclase; experiment: Cyclic GMP in cultured RFL-6 lung fibroblasts; assay type: cell-based
Method: Consonant with the mechanism of other nitro(so)-vasodilators (Ignarro, L. J. Circ. Res. 65:1 (1989)), relaxations were abolished by methylene blue, an inhibitor of guanylate cyclase (FIG. 11a). This mechanism was confirmed by showing that S-nitroso-BSA (18 μM) induces 3.5-fold increases (n=2) in cyclic GMP over basal levels relative to BSA alone in cultured RFL-6 lung fibroblasts containing a soluble guanylate cyclase exquisitely sensitive to NO (Forstermann et al., Mol. Pharmacol. 38:7 (1990)). Stimulation of guanylate cyclase by S-nitroso-BSA was attenuated by methylene blue.

[5] = Infusion into anesthetized dogs (blood pressure, coronary flow); assay type: in vivo, dog
Source text: (§1) These extremely potent, but reversible anti-platelet properties in vivo are unmatched by classic nitrates. […] As shown in FIGS. 12–14, the constellation of anti-platelet effect, long duration of action, and increased coronary blood flow, is unmatched by other nitroso-compounds. Thus, S-nitroso-proteins have very unique hemodynamic and bioactive profiles.

[6] = Canine model of subtotal coronary artery occlusion; assay type: in vivo, dog
Source text: as §1

trachea rings = experiment: Airway smooth muscle relaxation, trachea rings; assay type: cell-based, guinea pig
Source text: (§2) Male Hartley guinea pigs (500–600 g) were anesthetized by inhalation of enflurane to achieve a surgical plane of anesthesia. The trachea were excised and placed in Kreb's-Hanseleit buffer (mM); NaCl 118, KCl 5.4, NaH2PO4 1.01, glucose 11.1, NaHCO3 25.0, MgSO4 0.69, CaCl 2.32, pH 7.4. The airways were then dissected free from surrounding fat and connective tissue and cut into rings 2–4 mm in diameter. The trachea rings were placed in sterile Medium 199 containing 1% antibiotic/antimycotic mixture in an atmosphere of 5% CO2, […], 55% N2 and kept for up to 48 hours in tissue culture. The experiments were also performed on human airways isolated by the same method.
(§3) Trachea rings were mounted on stirrups and connected to transducers (model FTO3C Grass), by which changes in isometric tension were measured. Rings were then suspended in 10 cc of oxygenated (95% O2, 5% CO2) buffer. Airway rings were equilibrated for 60 minutes under a load of 1 gm and then primed twice by exposure to 100 μM methacholine. The rings were contracted with various agonists at concentrations determined to generate 50% (±16% S.D.) of maximum tone, after which the effect of S—NO-BSA was assessed. In selected experiments, relaxation responses were determined in the presence of hemoglobin, or after rings had been preexposed to methylene blue for 30 minutes.

human airways [7] = experiment: Bronchodilatory effect in human airways contracted with methacholine; assay type: cell-based
Source text: as §2, §3
(§4) The effect of guanylate cyclase inhibitors upon S-nitroso-protein-induced airway relaxation and cGMP increase was assessed, using the previously described bioassay and cyclic nucleotide assay procedures. The bronchodilatory effect of S-nitroso-albumin was examined in human airways (5–12 mm outer diameter).

human airways [8] = experiment: Airway cGMP levels; assay type: cell-based; settings: 100 μM
Method: as §4

[9] = Stability of S-nitroso-albumin in the presence of oxygen and redox metals; assay type: physicochemical; settings: Cu^+, Fe^2+, or Cu^2+ (50 μM) or defuroxamine or EDTA (10 μM)
Method: The stability of S-nitroso-albumin in the presence of oxygen and redox metals was assessed.
In addition, S-nitroso-protein stability was assessed in the presence of various redox metals or chelating agents.

[10] = Hemoglobin-oxygen association curve; settings: S-nitrosylation of hemoglobin
Source text: Thus, the reaction between S-nitrosothiols and hemoglobin not only eliminates the inhibition of oxygen binding which occurs from the reaction with uncharged NO and generation of methemoglobin, but it actually increases oxygen binding.

[11] = clinically used comparator; cited from earlier work
[12] = acidified NaNO2, NO gas or EDRF from endothelial cells

hemoglobin, sequence (P01966 2-142): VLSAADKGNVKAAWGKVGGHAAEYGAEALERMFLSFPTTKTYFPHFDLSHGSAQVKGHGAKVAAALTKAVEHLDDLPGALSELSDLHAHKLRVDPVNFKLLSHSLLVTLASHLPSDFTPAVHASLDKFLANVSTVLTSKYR
hemoglobin, sequence (P02070 whole entry): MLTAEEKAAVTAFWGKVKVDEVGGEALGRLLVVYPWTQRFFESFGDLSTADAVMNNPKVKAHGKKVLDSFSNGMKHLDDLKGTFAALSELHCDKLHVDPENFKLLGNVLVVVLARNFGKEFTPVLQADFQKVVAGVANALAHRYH

## [N]=O [NO, nitric oxide, reference compound]
gel-filtered platelets [1]; NO generated from NaNO2 (150 nM), n=5
  normalized extent of aggregation: 0.98±0.11
gel-filtered platelets [1]; NOx generated from NaNO2
  effect on the extent of platelet aggregation: no significant effect
[2]; 150 nM, contraction with 1 μM epinephrine, mean ±S.D., n=4
  % Relaxation: 1.0 ± 1.7%
hemoglobin
  reaction at the redox metal (iron-binding site) of hemoglobin: reacted instantaneously

## O=N[O-].[Na+] [NaNO2, Sodium nitrite, reference compound]
[2]; concentrations up to 15 μM
  effect on vessel tone (sentence negated: neither ... had): any significant effect
gel-filtered platelets [3]; concentrations up to 15 μM
  effect on platelet aggregation (sentence negated: neither ... had): any significant effect

## CC(=O)N[C@@H](CSN=O)C(=O)O [SNOAC, S-nitroso-N-acetylcysteine]
hemoglobin
  reaction at the redox metal (iron-binding site) of hemoglobin: no reaction

## NO-BSA: BSA loaded with NO at a ratio of 20:1 in 0.5 N HCl (Example 14)
[2]; BSA loaded with NO as in Example 14
  vessel relaxation with increasing concentrations of NO loaded: increase in vessel relaxation

## S-nitroso-BSA: S-nitrosylated bovine serum albumin
gel-filtered platelets [1]; [12]
  platelet inhibitory potency by method of synthesis: essentially equipotent
[2]; [12]
  vasorelaxant potency by method of synthesis: essentially equipotent
[2]; compared with EDRF, NO, low molecular weight S-nitrosothiols
  character of relaxation response: less rapid, but much more persistent, relaxation response
[4]; 18 μM, n=2
  increases in cyclic GMP over basal levels relative to BSA alone: 3.5 fold
[4]; methylene blue
  stimulation of guanylate cyclase in presence of methylene blue: attenuated
[5]
  blood pressure: prolonged decreases in blood pressure
  coronary flow: increased coronary flow
[6]
  bleeding times: significantly prolonged
  platelet-dependent cyclic thrombus formation: inhibited
Trachea rings; 0.01 μM
  relaxation of airway smooth muscle: 50%
Trachea rings; 10 μM
  relaxation of airway smooth muscle: over 75%
gel-filtered platelets [3]; 1.4 μM, impedance aggregometry for whole blood
  platelet inhibitory effect in platelet-rich plasma and whole blood: confirmed

## S-nitroso-albumin: S-nitrosylated albumin used in Examples 17 and 18; likely the same as S-nitroso-BSA
Human airways [7]; hemoglobin (100 μM)
  effect of hemoglobin on airway relaxation: little effect
Human airways [7]; methylene blue (10^−4) or LY83583 (5×10^−5)
  airway relaxation in presence of methylene blue or LY83583: not significantly inhibited
Human airways [7]; rings contracted with methacholine (7 μM), read-out: IC50 of airway relaxation
  IC50: 22 µM
Human airways [8]
  airway cGMP levels: increases over control
[9]
  decomposition in presence of redox metals or chelating agents: resistant to decomposition

## S-nitroso-hemoglobin: derived from the nitrosylation of hemoglobin
[10]
  hemoglobin-oxygen association curve: leftward shift
hemoglobin
  formation of methemoglobin: does not result in the formation of methemoglobin

## nitroprusside
[11]
  effect on coronary flow: deleterious effects on coronary flow
